Values after ≈ are worked out from the molar mass of the structure shown.
Tests used:
Assay in all cases: In vitro antibacterial evaluation: minimum inhibitory concentration (MIC), broth dilution method
Assay type in all cases: cell-based
[1] = tested on: Staphylococcus sp.; conditions: broth dilution, 18 hours at 35° C.
Outline: (§1)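 Inoculum: 5×10^5 CFU/mL. Range: 64-0.06 μg/mL. Medium: Muller-Hinton II […]; NCCLS M7-A2 broth dilution. Endpoint: lowest concentration inhibiting growth. Strains include methicillin-, penicillin- and/or vancomycin-resistant clinical isolates.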

[2] = tested on: Streptococcus sp.
Outline: as §1

[3] = tested on: Enterococcus sp.
Outline: as §1

[4] = tested on: Escherichia coli
Outline: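 MIC read as lowest drug level preventing visible growth. Organisms at 5×10^5 CFU/mL were exposed to a 64-0.06 μg/mL dilution series in Muller-Hinton II […] following NCCLS broth dilution standard M7-A2.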

Cc1cc(C2OCC3OC(OC4C(CO)OC(Oc5ccc(CC6NC(=O)C(C(C)c7ccccc7)NC(=O)CNC(=O)C(CO)NC(=O)C(C(O)C7CNC(=N)N7C7OC(CO)C(O)C(O)C7O)NC(=O)C(C(O)C7CNC(=N)N7)NC6=O)cc5)C(O)C4O)C(O)C(O)C3O2)ccc1[N+](=O)[O-] (stereo not drawn) [Example 151, Cyclo[glycyl-β-methylphenylalanyl-O-[4-O-[4,6-O-(3-methyl-4-nitrobenzylidene)hexonyranosyl]hexopyranosyl]tyrosyl-3-(2-iminoimidazolidin-4-yl)seryl-3-(3-hexopyranosyl-2-iminoimidazolidin-4-yl)serylseryl]]
MIC Coagulase Negative Staphylococcus (GC 4547) ([1]; 5×10^5 CFU/mL): 4 µg/mL (≈ 2.77 µM) | MIC Coagulase Negative Staphylococcus (GC 4548) ([1]; 5×10^5 CFU/mL): 4 µg/mL (≈ 2.77 µM) | MIC Coagulase Negative Staphylococcus (GC 4549) ([1]; 5×10^5 CFU/mL): 2 µg/mL (≈ 1.39 µM) | MIC Coagulase Negative Staphylococcus (GC 4551) ([1]; 5×10^5 CFU/mL): 8 µg/mL (≈ 5.55 µM) | MIC Coagulase Negative Staphylococcus (GC 6257) ([1]; 5×10^5 CFU/mL): 2 µg/mL (≈ 1.39 µM) | MIC Staphylococcus aureus (ATCC 29213) ([1]; 5×10^5 CFU/mL): 8 µg/mL (≈ 5.55 µM) | MIC Staphylococcus aureus (GC 1131) ([1]; 5×10^5 CFU/mL): 8 µg/mL (≈ 5.55 µM) | MIC Staphylococcus aureus (GC 3051) ([1]; 5×10^5 CFU/mL): 8 µg/mL (≈ 5.55 µM) | MIC Staphylococcus aureus (GC 3053) ([1]; 5×10^5 CFU/mL): 16 µg/mL (≈ 11.1 µM) | MIC Staphylococcus aureus (GC 4541) ([1]; 5×10^5 CFU/mL): 4 µg/mL (≈ 2.77 µM) | MIC Staphylococcus aureus (GC 4542) ([1]; 5×10^5 CFU/mL): 8 µg/mL (≈ 5.55 µM) | MIC Staphylococcus aureus (GC 4544) ([1]; 5×10^5 CFU/mL): 8 µg/mL (≈ 5.55 µM) | MIC Staphylococcus aureus (GC 4545) ([1]; 5×10^5 CFU/mL): 4 µg/mL (≈ 2.77 µM) | MIC Staphylococcus aureus-SMITH (GC 4543) ([1]; 5×10^5 CFU/mL): 8 µg/mL (≈ 5.55 µM) | MIC Staphylococcus haemolyticus (GC 4546) ([1]; 5×10^5 CFU/mL): 2 µg/mL (≈ 1.39 µM) | MIC Staphylococcus aureus (ATCC 29213) ([1]; strain ATCC 29213): 8 µg/mL (≈ 5.55 µM) | MIC Staphylococcus aureus (GC 1131) ([1]; strain GC 1131): 8 µg/mL (≈ 5.55 µM) | MIC Staphylococcus aureus (GC 3051) ([1]; strain GC 3051): 8 µg/mL (≈ 5.55 µM) | MIC Staphylococcus aureus (GC 3053) ([1]; strain GC 3053): 16 µg/mL (≈ 11.1 µM) | MIC Staphylococcus aureus (GC 4541) ([1]; strain GC 4541): 4 µg/mL (≈ 2.77 µM) | MIC Staphylococcus aureus (GC 4542) ([1]; strain GC 4542): 8 µg/mL (≈ 5.55 µM) | MIC Staphylococcus aureus-SMITH (GC 4543) ([1]; strain GC 4543): 8 µg/mL (≈ 5.55 µM) | MIC Staphylococcus aureus (GC 4544) ([1]; strain GC 4544): 8 µg/mL (≈ 5.55 µM) | MIC Staphylococcus aureus (GC 4545) ([1]; strain GC 4545): 4 µg/mL (≈ 2.77 µM) | MIC Staphylococcus haemolyticus (GC 4546) ([1]; strain GC 4546): 2 µg/mL (≈ 1.39 µM) | MIC Coagulase Negative Staphylococcus (GC 4547) ([1]; strain GC 4547): 4 µg/mL (≈ 2.77 µM) | MIC Coagulase Negative Staphylococcus (GC 4548) ([1]; strain GC 4548): 4 µg/mL (≈ 2.77 µM) | MIC Coagulase Negative Staphylococcus (GC 4549) ([1]; strain GC 4549): 2 µg/mL (≈ 1.39 µM) | MIC Coagulase Negative Staphylococcus (GC 4551) ([1]; strain GC 4551): 8 µg/mL (≈ 5.55 µM) | MIC Coagulase Negative Staphylococcus (GC 6257) ([1]; strain GC 6257): 2 µg/mL (≈ 1.39 µM) | MIC Streptococcus pneumoniae (ATCC 6301) ([2]; strain ATCC 6301): 1 µg/mL (≈ 0.693 µM) | MIC Streptococcus pneumoniae (GC 1894) ([2]; strain GC 1894): 0.5 µg/mL (≈ 0.347 µM) | MIC Streptococcus pyogenes (GC 4563) ([2]; strain GC 4563): 2 µg/mL (≈ 1.39 µM) | MIC Streptococcus agalactiae (GC 4564) ([2]; strain GC 4564): 4 µg/mL (≈ 2.77 µM) | MIC Streptococcus pneumoniae (GC 4565) ([2]; strain GC 4565): 1 µg/mL (≈ 0.693 µM) | MIC Enterococcus faecalis (ATCC 29212) ([3]; strain ATCC 29212): 32 µg/mL (≈ 22.2 µM) | MIC Enterococcus faecalis (GC 2242) ([3]; strain GC 2242): 16 µg/mL (≈ 11.1 µM) | MIC Enterococcus faecium (GC 2243) ([3]; strain GC 2243): 32 µg/mL (≈ 22.2 µM) | MIC Enterococcus faecalis (GC 2691) ([3]; strain GC 2691): 32 µg/mL (≈ 22.2 µM) | MIC Enterococcus faecalis (GC 3059) ([3]; strain GC 3059): 32 µg/mL (≈ 22.2 µM) | MIC Enterococcus faecalis (GC 4552) ([3]; strain GC 4552): 32 µg/mL (≈ 22.2 µM) | MIC Enterococcus faecalis (GC 4553) ([3]; strain GC 4553): 32 µg/mL (≈ 22.2 µM) | MIC Enterococcus faecalis (GC 4554) ([3]; strain GC 4554): 32 µg/mL (≈ 22.2 µM) | MIC Enterococcus faecium (GC 4556) ([3]; strain GC 4556): 32 µg/mL (≈ 22.2 µM) | MIC Enterococcus faecium (GC 4557) ([3]; strain GC 4557): 8 µg/mL (≈ 5.55 µM) | MIC Enterococcus avium (GC 4558) ([3]; strain GC 4558): 32 µg/mL (≈ 22.2 µM) | MIC Enterococcus faecalis (GC 6189) ([3]; strain GC 6189): 64 µg/mL (≈ 44.4 µM) | MIC Escherichia coli (ATCC 25922) ([4]; strain ATCC 25922): >64 µg/mL | MIC Escherichia coli (GC 4559) ([4]; strain GC 4559): >64 µg/mL | MIC Escherichi coli (GC 4560) ([4]; strain GC 4560): 2 µg/mL (≈ 1.39 µM)
